Biological target: T1, VPAC1 (Homo sapiens, UniProt P32241)
T1 sequence (P32241 31-457): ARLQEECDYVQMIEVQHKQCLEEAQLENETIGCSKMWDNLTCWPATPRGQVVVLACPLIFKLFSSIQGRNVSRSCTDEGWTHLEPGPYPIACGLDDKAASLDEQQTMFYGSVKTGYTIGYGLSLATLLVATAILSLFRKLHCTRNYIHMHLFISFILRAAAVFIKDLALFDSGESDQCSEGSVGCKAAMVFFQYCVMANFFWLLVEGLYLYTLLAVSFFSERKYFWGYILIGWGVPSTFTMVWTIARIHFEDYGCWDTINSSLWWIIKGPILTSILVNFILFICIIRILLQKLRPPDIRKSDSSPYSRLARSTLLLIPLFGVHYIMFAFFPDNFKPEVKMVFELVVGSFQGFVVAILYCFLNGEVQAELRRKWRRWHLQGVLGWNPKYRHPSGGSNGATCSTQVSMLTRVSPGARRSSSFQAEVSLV
Assay: Cyclic AMP SPA, cells expressing VPAC1
Format: cell-based

In the case of PACAP-27, the “agonist activity on VPAC1 (in words)” value is reported as “potent agonist”.

Reference: patent publication US7378494B2, “Pituitary adenylate cyclase activating peptide (PACAP) receptor (VPAC2) agonist peptide” (Bayer HealthCare AG, priority 2002, dated 2008)
